Test results: patent US20150038707A1, “PROCESS FOR MAKING CGRP RECEPTOR ANTAGONISTS” (Merck Sharp & Dohme Corp., priority 2012, published 2015)

Assays:
Susceptible An. Gambiae = test: Bottle toxicity assay (Example 8), susceptible mosquitoes; format: in vivo, Anopheles gambiae; settings: Strain Tested F123
Protocol: (§1) Several compounds were tested to determine their toxic effect on knockdown resistant Anopheles gambiae mosquitoes and susceptible mosquitoes. Acetone and different amounts of pesticides were added to 250 ml bottles. In one bottle, only acetone was added as a control. The bottles were rotated in all directions while uncapped until all acetone was evaporated and the insecticide was coated onto the inside surfaces of the bottle. A number of knockdown resistant Anopheles gambiae mosquitoes were added to the bottle. The number of dead mosquitoes was recorded at 1 hour and 24 hours.

KDR Resisant An. Gambiae = test: Bottle toxicity assay (Example 8), knockdown resistant mosquitoes; format: in vivo, Anopheles gambiae; settings: for KDR Resisant An. Gambiae (% dead (SE)): Strain Tested F123; for effectiveness against knockdown resistant strains: summary of Table 3
Protocol: as §1

[1] = tested on: Ae. aegypti Isla mujeres strain (metabolically pyrethroid resistant); test: Toxicity assay on treated netting (Example 7), Isla mujeres strain; format: in vivo
Protocol: (§2) Several compounds were tested to determine their toxic effect on Ae. aegypti mosquitoes. Three mosquito strains were tested—Houston which is pyrethroid susceptible, That which is pyrethroid tolerant and Isla Mujer which is metabolically pyrethroid resistant.
(§3) The toxicity assay involved a single chamber to which treated netting was added. Twenty (20) mosquitoes were transferred to the chamber. After 1 hour, the number of knocked down mosquitoes was recorded and all mosquitoes were transferred to holding cartoons. The mosquitoes were given a 10% sucrose-soaked cotton ball and returned to the insectary. Mortaility was measured after 24 hours. A control assay using acetone-treated netting was used. Six replicates were performed at each treatment concentration.

[2] = tested on: Ae. aegypti Houston strain (pyrethroid susceptible); test: Toxicity assay on treated netting (Example 7), Houston strain; format: in vivo
Protocol: as §2, §3

[3] = tested on: Ae. aegypti Thai strain (pyrethroid tolerant); test: Toxicity assay on treated netting (Example 7), Thai strain; format: in vivo
Protocol: as §2, §3

[4] = tested on: female Aedes aegypti (Thailand strain) mosquitoes; test: Contact irritancy and spatial repellency screening (Example 4); format: in vivo; settings: Dosage 25 nmol/cm^2; mapped with 3000 other compounds
Protocol: (§4) Four compounds of formula (I) were tested for contact irritancy (i.e., movement away from the source after physical contact) at low doses on female Aedes aegypti (Thailand strain) mosquitoes. The contact irritant response was determined by use of the contact irritant assay disclosed by Grieco et al. in “A New Classification System for the Actions of IRS Chemicals Traditionally Used for Malaria Control,” Plos One, Issue 8 (2007) (available at www.plosone.org). The assay used was a cylindrical assembly that included a metal treatment end to which 10 mosquitoes were introduced and a clear receiving chamber. The treatment end included a netting strip (nylon organdy) that was treated with the insecticide of interest at the relevant dose. A butterfly valve separated the treatment end from the remainder of the assembly.
(§5) The four compounds of formula I described in Example 2 were tested for spatial repellency (directed movement away from the chemical source without the insect making physical contact with the treated surface) at low doses on female Aedes aegypti (Thailand strain) mosquitoes. The spatial repellency response was determined by use of the spatial repellency assay disclosed by Grieco et al. in “A New Classification System for the Actions of IRS Chemicals Traditionally Used for Malaria Control” in Plos One, Issue 8 (2007) (available at www.plosone.org) which is incorporated herein by reference for all relevant and consistent purposes. The assay used was a cylindrical assembly that included a treatment chamber at one end and a control chamber at the other end. The treatment chamber included a netting strip (nylon organdy) that was treated with the insecticide of interest at the relevant dose. The treatment chamber and control chamber were connected by a clear cylinder and were separated from the clear cylinder by butterfly valves. Twenty (20) mosquitoes were introduced into the clear central chamber and the butterfly valves were opened after 30 seconds. After 10 minutes, the valves were closed and the number of mosquitoes in each chamber was counted.
Dosage was 25 nmol/cm^2. Several known compounds were also mapped for comparison—alphacypermethrin, cypermethrin, propoxur, bendiocarb, permethrin, SS220, DDT, deet and chlorpyrifos.

[5] = tested on: Ae. Aegypti strains Houston, That and Isla Mujer; test: Spatial repellency on metabolically resistant mosquitoes (Example 6); format: in vivo
Protocol: as §5
(§6) The spatial repellency protocol of Example 3 was used to determine spatial repellency against mosquitoes (Ae. Aegypti) that had acquired metabolic resistance against pyrethroids. DDT and transfluthrin were also tested. Three mosquito strains were tested—Houston which is pyrethroid susceptible, That which is pyrethroid tolerant and Isla Mujer which is metabolically pyrethroid resistant.

[6] = tested on: female Aedes aegypti (Thailand strain) mosquitoes; test: Contact irritancy assay on mosquitoes (Example 2); format: in vivo; settings: netting treated at 0.0025-2.5 nmol/cm^2
Protocol: as §4
(§7) Each composition was applied to the netting strip at a varied dose via a 1.5 ml acetone solution. Four (4) treatment concentrations were used—0.0025 nmol/cm^2, 0.025 nmol/cm^2, 0.25 nmol/cm^2 and 2.5 nmol/cm^2. Netting was allowed to dry for 15 minutes prior to placement in the cylinder. Control assays were performed with netting treated with acetone only.
(§8) For each run, 10 mosquitoes were transferred into the treatment end of the assembly and, after 30 seconds, the butterfly valve was opened. The valve was closed after 10 minutes and the number of mosquitoes in the clear end (i.e., the number of escaped mosquitoes) was tested.

[7] = tested on: Ae. Aegypti, That strain (pyrethroid tolerant); test: Contact irritancy on pyrethroid tolerant mosquitoes (Example 5); format: in vivo
Protocol: as §4, §7, §8
as §6, with “contact irritancy” for “spatial repellency”, “2” for “3”, “Alphacypermethrin” for “DDT”

[8] = Dose 0.25 μg/bottle, Time 1 hour
[9] = Dose 0.25 μg/bottle, Time 24 hours
[10] = Dose 2.5 μg/bottle, Time 1 hour
[11] = Dose 2.5 μg/bottle, Time 24 hours
[12] = Dose 0.25 nm/cm^2, Time 24 hours
[13] = Dose 2.5 nm/cm^2, Time 24 hours
[14] = Dose 0.0025 μg/bottle, Time 1 hour
[15] = Dose 0.0025 μg/bottle, Time 24 hours
[16] = Dose 0.025 μg/bottle, Time 1 hour
[17] = Dose 0.025 μg/bottle, Time 24 hours
[18] = Dose 0.025 nm/cm^2, Time 1 hour
[19] = Dose 0.025 nm/cm^2, Time 24 hours

Row | SMILES | Susceptible An. Gambiae (% dead (SE)) (Susceptible An. Gambiae; [8]) [%] | Susceptible An. Gambiae (% dead (SE)) (Susceptible An. Gambiae; [9]) [%] | Susceptible An. Gambiae (% dead (SE)) (Susceptible An. Gambiae; [10]) [%] | Susceptible An. Gambiae (% dead (SE)) (Susceptible An. Gambiae; [11]) [%] | KDR Resisant An. Gambiae (% dead (SE)) (KDR Resisant An. Gambiae; [8]) [%] | KDR Resisant An. Gambiae (% dead (SE)) (KDR Resisant An. Gambiae; [9]) [%] | KDR Resisant An. Gambiae (% dead (SE)) (KDR Resisant An. Gambiae; [10]) [%] | KDR Resisant An. Gambiae (% dead (SE)) (KDR Resisant An. Gambiae; [11]) [%] | Isla mujeres (% dead (SE)) ([1]; Dose 0.25 nm/cm^2, Time 1 hour) [%] | Isla mujeres (% dead (SE)) [1, 12] [%] | Isla mujeres (% dead (SE)) ([1]; Dose 2.5 nm/cm^2, Time 1 hour) [%] | Isla mujeres (% dead (SE)) [1, 13] [%] | Houston (% dead (SE)) ([2]; Dose 0.25 nm/cm^2, Time 1 hour) [%] | Houston (% dead (SE)) [2, 12] [%] | Houston (% dead (SE)) ([2]; Dose 2.5 nm/cm^2, Time 1 hour) [%] | Houston (% dead (SE)) [2, 13] [%] | Thai (% dead (SE)) ([3]; Dose 0.25 nm/cm^2, Time 1 hour) [%] | Thai (% dead (SE)) [3, 12] [%] | Thai (% dead (SE)) ([3]; Dose 2.5 nm/cm^2, Time 1 hour) [%] | Thai (% dead (SE)) [3, 13] [%] | also measured
1 | CC1(C)C(C=C(Cl)Cl)C1C(=O)OCc1cccc(Oc2ccccc2)c1 (stereo not drawn) [Permethrin, permethrin, reference compound] | 100 | 100 | 100 | 100 | 0 | 24 | 25 | 78 | 87.49 | 14.68 | 100 | 100 | 100 | 100 | 100 | 100 | – | – | – | – | effectiveness against knockdown resistant strains (KDR Resisant An. Gambiae): less effective
2 | CC1(C)C(C=C(Cl)Cl)C1C(=O)OC(C#N)c1cccc(Oc2ccccc2)c1 (stereo not drawn) [Alpha-cypermethrin, alpha cypermethrin, reference compound] | – | – | – | – | – | – | – | – | 96.66 | 41.06 | 100 | 100 | 100 | 100 | 100 | 100 | 100 | 83.9 | 100 | 100 | –
3 | CC(C)c1cccc(COC(=O)C2C(C=C(Cl)C(F)(F)F)C2(C)C)c1F (stereo not drawn) [Compound 1415] | – | – | – | – | – | – | – | – | – | – | – | – | – | – | – | – | – | – | – | – | contact irritancy and spatial repellency relative to screened compounds (FIG. 3) [4]: superior contact irritancy and spatial repellency relative to most screened compounds; spatial repellency, all strains (FIG. 5) [5]: spatial repellants for all strains; contact irritancy, dose compared with alphacypermethrin (FIG. 1) [6]: showed contact irritancy at a lower dose than alphacypermethrin; contact irritancy (FIG. 1) ([6]; 10 minutes): showed contact irritancy at relatively low doses; contact irritancy, tolerant strain (FIG. 4) [7]: contact irritants for tolerant strains
4 | C/C=C/C1C(C(=O)OCc2c(F)c(F)c(COC)c(F)c2F)C1(C)C (stereo in doubt) [Metafluthrin, metafluthrin, reference compound] | 100 | 100 | 100 | 100 | 100 | 100 | 100 | 100 | 100 | 77.27 | 100 | 100 | 100 | 100 | 100 | 100 | 100 | 100 | 100 | 100 | Susceptible An. Gambiae (% dead (SE)) (Susceptible An. Gambiae; [14]): 100%; Susceptible An. Gambiae (% dead (SE)) (Susceptible An. Gambiae; [15]): 86%; Susceptible An. Gambiae (% dead (SE)) (Susceptible An. Gambiae; [16]): 100%; Susceptible An. Gambiae (% dead (SE)) (Susceptible An. Gambiae; [17]): 100%; KDR Resisant An. Gambiae (% dead (SE)) (KDR Resisant An. Gambiae; [14]): 10%; KDR Resisant An. Gambiae (% dead (SE)) (KDR Resisant An. Gambiae; [15]): 25%; KDR Resisant An. Gambiae (% dead (SE)) (KDR Resisant An. Gambiae; [16]): 47%; KDR Resisant An. Gambiae (% dead (SE)) (KDR Resisant An. Gambiae; [17]): 86%; effectiveness against knockdown resistant strains (KDR Resisant An. Gambiae): less effective; Thai (% dead (SE)) [3, 18]: 100%; Thai (% dead (SE)) [3, 19]: 89.2%; Isla mujeres (% dead (SE)) [1, 18]: 56.3%; Isla mujeres (% dead (SE)) [1, 19]: 21.89%; Houston (% dead (SE)) [2, 18]: 100%; Houston (% dead (SE)) [2, 19]: 100%
5 | CC1(C)[C@H](C=C(Cl)Cl)[C@H]1C(=O)OCc1c(F)c(F)cc(F)c1F [Transfluthrin, transfluthrin, reference compound] | – | – | – | – | – | – | – | – | 100 | 100 | 100 | 100 | 100 | 100 | 100 | 100 | 100 | 100 | 100 | 100 | Thai (% dead (SE)) [3, 18]: 100%; Thai (% dead (SE)) [3, 19]: 91.7%; Isla mujeres (% dead (SE)) [1, 18]: 100%; Isla mujeres (% dead (SE)) [1, 19]: 1.6%; Houston (% dead (SE)) [2, 18]: 100%; Houston (% dead (SE)) [2, 19]: 100%
